Measurements from paper doi:10.1101/2024.07.10.602890, “H105A peptide eye drops promote photoreceptor survival in murine and human models of retinal degeneration” (bioRxiv, 2024).
Ends that are not written are not given here.

Tested on: Rho^P23H/+ mice
Assay: H105A eye drops in Rho P23H/+ mice: BAX/BCL2 immunofluorescence, ONL and OS thickness
Assay type: in vivo, mouse
Method: Fig. 6: Effects of eye drops containing H105A peptide in the photoreceptors of RhoP23H/+ mice (A) Scheme of experimental design. Daily peptide eye drops (5 μl of 1mg/ml peptide) were applied to mice starting at P14 until P19 when immunofluorescence of retinal cross sections was performed. The contralateral control eyes were treated with vehicle HBSS. (B) Immunostaining was performed with antibodies against BAX or BCL2 (green), and DAPI (blue). Histograms show quantification of immunofluorescence intensity for BAX and BCL2 markers. […] Each individual data point represents the average of one retina, with statistical significance determined by unpaired t-test (****p < 0.00001). Scale bar = 10 μm. […] (D) Quantification of ONL thickness represented in the spider graph confirmed a significant preservation in the ventral retina. […] Presented as average ± SEM, with statistics performed using One-way ANOVA * p<0.05
Eyes from Rho^P23H/+ mice eyes were enucleated and fixed in Davidson’s fix (Formaldehyde 8% (Merck, cat. F8775); Ethanol 32% (Carlo Erba, cat. 414608); Acetic Acid 10% (Merck, cat. 695092) over-night. After embedding in paraffin, 14 μm sections were collected. For TUNEL, sections were treated with 0.1 M Citrate Buffer pH 6 (Tri-sodium Citrate 10 mM (Carlo Erba, cat. 368007); Citric Acid 0.2 mM (Merck, cat: 251275) in microwave for 5 minutes, then labeling was performed for one hour at 37°C using a In Situ Cell Death Detection Kit (Merck, cat. 12156792910). Rod photoreceptors were labeled with anti-RHO 1D4 antibody followed by Alexa Fluor 568 anti-mouse secondary antibody (see Table S3). Cone photoreceptors were labeled with peanut agglutinin (PNA, Vector Laboratories, cat. FL-1071). GFP localization in control transduced retinas was identified with specific anti-GFP antibodies and Alexa Fluor 488 anti-mouse secondary antibody (see Table S3). For nuclear staining, 0.1 μg/mL DAPI was used. Slides were mounted with Mowiol 4–88 (Merck) and images acquired with a Zeiss Axio Imager A2 fluorescence microscope. To count TUNEL positive cells the RETINA Analysis Tool kit for ImageJ was used ([52]).
To generate spider plots, the ONL thickness was measured from images acquired with light microscopy of the retina sections stained with H&E or images of retina sections stained with DAPI with a dorsal-ventral orientation. The ONL thickness in the entire retina sections was measured at 5 different positions from both sides of the optic nerve (ON) using ImageJ, as described before ([28]). Alternatively, for DAPI stained images, a customed macro implemented in ImageJ was used to select only the ONL.

[1] = daily eye drops 5 μl of 1 mg/ml P14 to P19, vs contralateral HBSS

QRTESIIARALYYDLIS [H105A]
BAX level (immunofluorescence) [1]: attenuated the levels of BAX
BCL2 level (immunofluorescence) [1]: increased BCL2
outer segments (OS) of rod photoreceptors labeled by rhodopsin (daily eye drops P14 to P19, P19, n = 9): significantly preserved
ONL thickness (daily eye drops P14 to P19, assessed at P19): significant preservation in the ventral part of the retina
